Experimental data from ChEMBL document CHEMBL1201862, “PubChem BioAssay data set” (2004).
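Tested at 5 concentrations; 48 h exposure; 96-well plates; endpoints linearly interpolated, else capped at highest concentration. GI50 marks 50% less growth.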 Calls of active or inactive are those of the source. Cut-off read from the data, not from the text of the source: active = GI50 up to about 1.1 µM and inactive = higher.

Assays:
Assay in all cases: NCI anticancer screen, dose series, 48 h
OVCAR-5 = tested on: OVCAR-5
NCI-H23 = tested on: NCI-H23
NCI/ADR-RES = tested on: NCI/ADR-RES
NCI-H226 = tested on: NCI-H226
HT-29 = tested on: HT-29
OVCAR-3 = tested on: OVCAR-3
HOP-62 = tested on: HOP-62
SW-620 = tested on: SW-620
MCF7 = tested on: MCF7
MDA-MB-231 = tested on: MDA-MB-231
MDA-MB-435 = tested on: MDA-MB-435
UACC-62 = tested on: UACC-62
RPMI-8226 = tested on: RPMI-8226
NCI-H460 = tested on: NCI-H460
NCI-H522 = tested on: NCI-H522
OVCAR-8 = tested on: OVCAR-8
UO-31 = tested on: UO-31
KM12 = tested on: KM12
SF-268 = tested on: SF-268
SNB-19 = tested on: SNB-19

| Structure (SMILES) | GI50 (OVCAR-5) | GI50 (NCI-H23) | GI50 (NCI/ADR-RES) | GI50 (NCI-H226) | GI50 (HT-29) | GI50 (OVCAR-3) | GI50 (HOP-62) | GI50 (SW-620) | GI50 (MCF7) | GI50 (MDA-MB-231) | GI50 (MDA-MB-435) | GI50 (UACC-62) | GI50 (RPMI-8226) | GI50 (NCI-H460) | GI50 (NCI-H522) | GI50 (OVCAR-8) | GI50 (UO-31) | GI50 (KM12) | GI50 (SF-268) | GI50 (SNB-19) |
| --- | --- | --- | --- | --- | --- | --- | --- | --- | --- | --- | --- | --- | --- | --- | --- | --- | --- | --- | --- | --- |
| Ic1cccc(/C=C/CN2CCN(CCOC(c3ccccc3)c3ccccc3)CC2)c1 | 16.7 µM (inactive) | 16.2 µM (inactive) | 16 µM (inactive) | 17.1 µM (inactive) | 6.47 µM (inactive) | 16.7 µM (inactive) | 17 µM (inactive) | 26.7 µM (inactive) | 14.6 µM (inactive) | 14 µM (inactive) | 14.4 µM (inactive) | 18.6 µM (inactive) | 3.01 µM (inactive) | 11.3 µM (inactive) | 16.1 µM (inactive) | 16 µM (inactive) | 13 µM (inactive) | 14.9 µM (inactive) | 27.2 µM (inactive) | 16.3 µM (inactive) |
| COC(=O)NC1C(C)OC(OC2C/C=C(/C)C3C=CC4C(OC5CC(OC6CCC(OC7CC(O)C(OC8CCC(O)C(C)O8)C(C)O7)C(C)O6)C(OC(C)=O)C(C)O5)C(C)CC(C)C4C3(C)/C(O)=C3/C(=O)OC4(CC(C=O)=CC(O)C4/C=C\2C)C3=O)CC1(C)[N+](=O)[O-] (stereo not given) | 1.93 µM (inactive) | 0.774 µM (active) | 6.17 µM (inactive) | 1.06 µM (active) | 1.1 µM (active) | 0.971 µM (active) | 0.767 µM (active) | 0.989 µM (active) | 0.94 µM (active) | 0.755 µM (active) | 0.382 µM (active) | 0.552 µM (active) | 0.957 µM (active) | 0.778 µM (active) | 0.824 µM (active) | 1 µM (active) | 1.68 µM (inactive) | 0.809 µM (active) | 0.719 µM (active) | 0.69 µM (active) |
| Nc1ncc(Cc2nc3ccccc3s2)s1 | > 100 µM (inactive) | > 10 µM (inactive) | 91.6 µM (inactive) | 24.6 µM (inactive) | 29.3 µM (inactive) | 47.3 µM (inactive) | > 100 µM (inactive) | > 100 µM (inactive) | 35.6 µM (inactive) | 69.8 µM (inactive) | 39.2 µM (inactive) | 54 µM (inactive) | 18.5 µM (inactive) | 73.6 µM (inactive) | 53.1 µM (inactive) | 57.3 µM (inactive) | 68.9 µM (inactive) | 56.4 µM (inactive) | > 100 µM (inactive) | > 100 µM (inactive) |
| Cc1nc2c(o1)C(=O)c1ccccc1/C2=N/c1ccc(N2CCOCC2)cc1 | 18.2 µM (inactive) | 2.39 µM (inactive) | 2.88 µM (inactive) | 20.5 µM (inactive) | 24.8 µM (inactive) | 1.69 µM (inactive) | 8.85 µM (inactive) | 3.89 µM (inactive) | 2.77 µM (inactive) | 2.7 µM (inactive) | 1.94 µM (inactive) | 2.03 µM (inactive) | 3.38 µM (inactive) | 11.1 µM (inactive) | 2.48 µM (inactive) | 2.81 µM (inactive) | 3.43 µM (inactive) | 16 µM (inactive) | 4.48 µM (inactive) | 8.47 µM (inactive) |
